According to US6939948B1, “GD2 peptide mimics” (Health Research, Inc., priority 2002, dated 2005):
No end group written: not given here.

Tested on: anti-GD2 ganglioside mAb 3F8
Experiment: Inhibition assay: inhibition of binding of anti-GD2 mAb 3F8 to GD2 ganglioside bearing melanoma cells
Conditions: GD2 (+) human melanoma cells
Experimental: Peptide mimics of GD2 ganglioside can be isolated by panning phage display peptide libraries with anti-GD2 ganglioside such as mAbs 3F8, 5F11, and KM666 that recognize different epitopes on GD2 ganglioside. Anti-GD2 ganglioside mAbs can be used to isolate phage that display antibody reactive peptides. After phage panning, the binding ability of isolated phage colonies to anti-GD2 ganglioside mAbs is tested with immunoscreening and further confirmed by ELISA. Anti-GD2 antibody reactive phage clone and the same phage without displaying peptides, can be utilized as a positive and a negative controls respectively in the immunoscreening and ELISA. In the positive phage clones, the DNA inserts that encode the antibody reactive peptides can be sequenced. Peptides can be synthesized based on the sequences of the DNA inserts. The synthesized peptides are tested in ELISA to determine their binding reactivity with corresponding anti-GD2 ganglioside mAbs. […] The synthetic peptides that inhibit or block the binding of anti-GD2 ganglioside mAbs to GD2 ganglioside can be tested as active immunotherapy candidates.
The synthesized peptides were tested with reverse ELISA and inhibition assay with mAb 3F8. […] Peptide J51 contains HLA-B7 and HLA-DRB1 binding motifs.

Substance | inhibition of the binding of mAb 3F8 to GD2 ganglioside bearing melanoma cells
DCFRGDPYQPKWRLC (J51 peptide mimic for GD2) [Peptide J51, GD2 peptide mimic from PVIII X15 library] | inhibited the binding
cJ51: cyclic peptide J51, which mimics the structure of GD2 ganglioside (DCFRGDPYQPKWRLC; also: cyclic, cyclising bond not given here) | inhibit the binding
